For 54 molecules, IC50 results are on record in patent US12540141B2, “Spiropyrrolidine derived antiviral agents” (priority 2020, dated 2026).

For the test, the target named is SARS-CoV-2 3CL-protease (Severe acute respiratory syndrome coronavirus 2, UniProt P0DTD1). Kind of test: SARS-CoV-2 3C-Like (3CL) Protease Fluorescence Assay (FRET). Type of test: biochemical. The following applies: SARS-CoV-2 3CL-protease 10 nM, 30 min preincubation at RT, substrate 40 μM.

Each structure is given as a SMILES string.

In the case of `CC(C)C[C@@H](C(=O)N1C[C@]2(C[C@H]1C#N)C(=O)Nc1ccccc12)N(C)C(=O)c1cnc2ccccc2n1` [Example 298], the IC50 (as a rule, the concentration needed to halve the response being measured) lay within 100 to 1000 nM.
On to `CC(C)C[C@@H](C(=O)N1C[C@]2(C[C@H]1C#N)C(=O)Nc1ccccc12)N(C)C(=O)c1c(F)ccc2ccncc12` [Example 299], for which the IC50 is less than 100 nM.
The same measure for `CC(C)C[C@@H](C(=O)N1C[C@]2(C[C@H]1C#N)C(=O)Nc1ccccc12)N(C)C(=O)c1cnc2cnccc2c1` [Example 301]: less than 100 nM; for `CC(C)C[C@@H](C(=O)N1C[C@]2(C[C@H]1C#N)C(=O)Nc1ccccc12)N(C)C(=O)c1cnc2cccnc2c1` [Example 302]: 100 to 1000 nM.
In the case of `CC(C)C[C@@H](C(=O)N1C[C@]2(C[C@H]1C#N)C(=O)Nc1ccccc12)N(C)C(=O)c1ccc2ncccc2n1` [Example 303] it was less than 100 nM; in that of `CC(C)C[C@@H](C(=O)N1C[C@]2(C[C@H]1C#N)C(=O)Nc1ccccc12)N(C)C(=O)c1cccc2ncc(F)cc12` [Example 304], less than 100 nM; in that of `CC(C)C[C@@H](C(=O)N1C[C@]2(C[C@H]1C#N)C(=O)Nc1ccccc12)N(C)C(=O)c1ccnc2ccc(F)cc12` [Example 305], less than 100 nM.
Turning to `CC(C)C[C@@H](C(=O)N1C[C@]2(C[C@H]1C#N)C(=O)Nc1ccccc12)N(C)C(=O)c1ccnc2cccc(F)c12` [Example 306], the IC50 is less than 100 nM.
On to `CC(C)C[C@@H](C(=O)N1C[C@]2(C[C@H]1C#N)C(=O)Nc1ccccc12)N(C)C(=O)c1cc(F)c2nn(C)cc2c1` [Example 309], for which the IC50 is less than 100 nM.
`CC(C)C[C@@H](C(=O)N1C[C@]2(C[C@H]1C#N)C(=O)Nc1ccccc12)N(C)C(=O)c1cc(OC2CC2)c2nc(Cl)ccc2c1` [Example 310] yielded an IC50 of less than 100 nM.
In the case of `CC(C)C[C@@H](C(=O)N1C[C@]2(C[C@H]1C#N)C(=O)Nc1ccccc12)N(C)C(=O)c1cc(F)c2nn(C3CC3)cc2c1` [Example 311], the IC50 was in the range of 100 to 1000 nM.
The same measure for `CC(C)C[C@@H](C(=O)N1C[C@]2(C[C@H]1C#N)C(=O)Nc1ccccc12)N(C)C(=O)c1cc(OC2CC2)c2ncccc2c1` [Example 312]: less than 100 nM.
In the case of `CC(C)C[C@@H](C(=O)N1C[C@]2(C[C@H]1C#N)C(=O)Nc1ccccc12)N(C)C(=O)c1cc(OC2CC2)n2nc(C3CC3)c(C(=O)C(F)(F)F)c2c1` [Example 313] it was 100 to 1000 nM; in that of `CC(C)C[C@@H](C(=O)N1C[C@]2(C[C@H]1C#N)C(=O)Nc1ccccc12)N(C)C(=O)c1cc(F)c2nc(C3CC3)c(C(=O)C(F)(F)F)n2c1` [Example 314], 100 to 1000 nM.
In turn, `CC(C)C[C@@H](C(=O)N1C[C@]2(C[C@H]1C#N)C(=O)Nc1ccccc12)N(C)C(=O)c1cc(OC2CC2)n2nc(C3CC3)cc2c1` [Example 315] registered an IC50 of less than 100 nM.
`CC(C)C[C@@H](C(=O)N1C[C@]2(C[C@H]1C#N)C(=O)Nc1ccccc12)N(C)C(=O)c1cc(Cl)c2nn(C3CC3)cc2c1` [Example 316] registered an IC50 of less than 100 nM.
`CC(C)C[C@@H](C(=O)N1C[C@]2(C[C@H]1C#N)C(=O)Nc1ccccc12)N(C)C(=O)c1cc(OC2CC2)c2nc(C3CC3)sc2c1` [Example 317] had an IC50 of less than 100 nM.
Molecule `CC(C)C[C@@H](C(=O)N1C[C@]2(C[C@H]1C#N)C(=O)Nc1ccccc12)N(C)C(=O)c1cc(F)c2nc(C3CC3)cn2c1` [Example 318] had an IC50 of less than 100 nM.
As for `COc1cc(C(=O)N(C)[C@@H](CC(C)C)C(=O)N2C[C@]3(C[C@H]2C#N)C(=O)Nc2ccccc23)cc2cn(C3(C)CC3)nc12` [Example 319], the IC50 was less than 100 nM.
For `COc1cc(C(=O)N(C)[C@@H](CC(C)C)C(=O)N2C[C@]3(C[C@H]2C#N)C(=O)Nc2ccccc23)cc2cn(C3CCC3)nc12` [Example 320], the IC50 is less than 100 nM.
In the case of `Cc1ccc2cc(C(=O)N(C)[C@@H](CC(C)C)C(=O)N3C[C@]4(C[C@H]3C#N)C(=O)Nc3ccccc34)cc(OC3CC3)c2n1` [Example 321] it was less than 100 nM; in that of `CC(C)C[C@@H](C(=O)N1C[C@]2(C[C@H]1C#N)C(=O)Nc1ccccc12)N(C)C(=O)c1cc(OC(F)(F)F)c2ncccc2c1` [Example 322], less than 100 nM; in that of `Cc1cc2cc(C(=O)N(C)[C@@H](CC(C)C)C(=O)N3C[C@]4(C[C@H]3C#N)C(=O)Nc3ccccc34)cc(OC3CC3)c2nc1C` [Example 323], less than 100 nM.
In the case of `CC(C)C[C@@H](C(=O)N1C[C@]2(C[C@H]1C#N)C(=O)Nc1ccccc12)N(C)C(=O)c1cc(OC2CC2)c2ncc(C3CC3)cc2c1` [Example 324] it was 100 to 1000 nM; in that of `CC(C)C[C@@H](C(=O)N1C[C@]2(C[C@H]1C#N)C(=O)Nc1ccccc12)N(C)C(=O)c1cc2cccc(F)c2[nH]1` [Example 325], less than 100 nM.
In the case of `CC(C)C[C@@H](C(=O)N1C[C@]2(C[C@H]1C#N)C(=O)Nc1ccccc12)N(C)C(=O)c1cc2cc(C(F)(F)F)ccc2[nH]1` [Example 326] it was less than 100 nM; in that of `CC(C)C[C@@H](C(=O)N1C[C@]2(C[C@H]1C#N)C(=O)Nc1ccccc12)N(C)C(=O)c1cc2cc(C#N)ccc2[nH]1` [Example 327], less than 100 nM.
`CC(C)C[C@@H](C(=O)N1C[C@]2(C[C@H]1C#N)C(=O)Nc1ccccc12)N(C)C(=O)c1cc2c(Cl)c(Cl)ccc2[nH]1` [Example 328] gave an IC50 of less than 100 nM.
In the case of `CC(C)C[C@@H](C(=O)N1C[C@]2(C[C@H]1C#N)C(=O)Nc1ccccc12)N(C)C(=O)C1(c2ccc3c(c2)OC(F)(F)O3)CC1` [Example 329] it was less than 100 nM; in that of `CC(C)C[C@@H](C(=O)N1C[C@]2(C[C@H]1C#N)C(=O)Nc1ccccc12)N(C)C(=O)c1ccc2ncccc2c1F` [Example 330], less than 100 nM; in that of `CC(C)C[C@@H](C(=O)N1C[C@]2(C[C@H]1C#N)C(=O)Nc1ccccc12)N(C)C(=O)c1cc2ccc(C(F)(F)F)cc2[nH]1` [Example 331], less than 100 nM.
The same measure for `CC(C)C[C@@H](C(=O)N1C[C@]2(C[C@H]1C#N)C(=O)Nc1ccccc12)N(C)C(=O)c1cc2cc(F)c(F)c(F)c2[nH]1` [Example 333]: less than 100 nM; for `CC(C)C[C@@H](C(=O)N1C[C@]2(C[C@H]1C#N)C(=O)Nc1ccccc12)N(C)C(=O)c1cc2ccc(Cl)c(Cl)c2[nH]1` [Example 334]: less than 100 nM.
As to `CC(C)C[C@@H](C(=O)N1C[C@]2(C[C@H]1C#N)C(=O)Nc1ccccc12)N(C)C(=O)N1CC[C@H](O)C1` [Example 335], the IC50 lay within 100 to 1000 nM.
`CC(C)C[C@@H](C(=O)N1C[C@]2(C[C@H]1C#N)C(=O)Nc1ccccc12)N(C)C(=O)c1cc2cccc(C(F)(F)F)c2[nH]1` [Example 336]: the 50% inhibitory concentration (IC50) is less than 100 nM.
`CC(C)C[C@@H](C(=O)N1C[C@]2(C[C@H]1C#N)C(=O)Nc1ccccc12)N(C)C(=O)c1cn(-c2ccccc2)nn1` [Example 338] returned an IC50 of less than 100 nM.
`CC(C)C[C@@H](C(=O)N1C[C@]2(C[C@H]1C#N)C(=O)Nc1ccccc12)N(C)C(=O)c1ccc2nn(C3CC3)cc2c1` [Example 339] returned a half-inhibitory concentration (IC50) of 100 to 1000 nM.
In the case of `CC(C)C[C@@H](C(=O)N1C[C@]2(C[C@H]1C#N)C(=O)Nc1ccccc12)N(C)C(=O)c1cc(F)c2nc(C3CC3)[nH]c2c1` [Example 340] it was 100 to 1000 nM; in that of `CC(C)C[C@@H](C(=O)N1C[C@]2(C[C@H]1C#N)C(=O)Nc1ccccc12)N(C)C(=O)c1cc(F)c2nc(C(F)F)cn2c1` [Example 341], 100 to 1000 nM.
In the case of `Cc1cc(F)c(C(=O)N(C)[C@@H](CC(C)C)C(=O)N2C[C@]3(C[C@H]2C#N)C(=O)Nc2ccccc23)cc1-c1cnn(C2CC2)c1` [Example 342], the IC50 was less than 100 nM.
As for `CC(C)C[C@@H](C(=O)N1C[C@]2(C[C@H]1C#N)C(=O)Nc1ccccc12)N(C)C(=O)c1ccc(OC2CC2)c(-c2cccnc2)c1` [Example 343], the IC50 was less than 100 nM.
The same measure for `CC(C)C[C@@H](C(=O)N1C[C@]2(C[C@H]1C#N)C(=O)Nc1ccccc12)N(C)C(=O)[C@H]1CCN(C(=O)OC(C)(C)C)C1` [Example 344]: 100 to 1000 nM; for `CC(C)C[C@@H](C(=O)N1C[C@]2(C[C@H]1C#N)C(=O)Nc1ccccc12)N(C)C(=O)[C@@H]1CCN(C(=O)OC(C)(C)C)C1` [Example 345]: less than 100 nM; for `CC(C)C[C@@H](C(=O)N1C[C@]2(C[C@H]1C#N)C(=O)Nc1ccccc12)N(C)C(=O)[C@@H](c1cnn(C)c1)C(C)C` [Example 348]: less than 100 nM.
Regarding `CC(C)C[C@@H](C(=O)N1C[C@]2(C[C@H]1C#N)C(=O)Nc1ccccc12)N(C)C(=O)[C@H](c1cnn(C)c1)C(C)C` [Example 349], the IC50 is less than 100 nM.
In the case of `CC(C)C[C@@H](C(=O)N1C[C@]2(C[C@H]1C#N)C(=O)Nc1ccccc12)N(C)C(=O)[C@@H](c1cn(C)nn1)C(C)C` [Example 350] it was less than 100 nM; in that of `CC(C)C[C@@H](C(=O)N1C[C@]2(C[C@H]1C#N)C(=O)Nc1ccccc12)N(C)C(=O)[C@H](c1cn(C)nn1)C(C)C` [Example 351], less than 100 nM.
In the case of `CC(C)C[C@@H](C(=O)N1C[C@]2(C[C@H]1C#N)C(=O)Nc1ccccc12)N(C)C(=O)c1cnn(C(C)(C)C)c1` [Example 352] it was less than 100 nM.
Molecule `CC(C)C[C@@H](C(=O)N1C[C@]2(C[C@H]1C#N)C(=O)Nc1ccccc12)N(C)C(=O)c1cnn(-c2ccccc2C(F)(F)F)c1` [Example 353] showed an IC50 of less than 100 nM.
In the case of `CC(C)C[C@@H](C(=O)N1C[C@]2(C[C@H]1C#N)C(=O)Nc1ccccc12)N(C)C(=O)c1nnc(C2CC2)o1` [Example 354] it was less than 100 nM; in that of `CC(C)C[C@@H](C(=O)N1C[C@]2(C[C@H]1C#N)C(=O)Nc1ccccc12)N(C)C(=O)c1nnc(-c2ccc(F)cc2)o1` [Example 355], less than 100 nM.
For `CC(C)C[C@@H](C(=O)N1C[C@]2(C[C@H]1C#N)C(=O)Nc1ccccc12)N(C)C(=O)c1nnn(C(C)(C)C)n1` [Example 356], the IC50 is less than 100 nM.
In the case of `CN(C(=O)c1cn(-c2ccc(F)cc2)nn1)[C@@H](Cc1ccccc1)C(=O)N1C[C@]2(C[C@H]1C#N)C(=O)Nc1ccccc12` [Example 357] it was less than 100 nM.
Turning to `CN(C(=O)c1cn(C2CCC2)nn1)[C@@H](Cc1ccccc1)C(=O)N1C[C@]2(C[C@H]1C#N)C(=O)Nc1ccccc12` [Example 358], the IC50 is less than 100 nM.
